Assay results as given in the NIST ThermoML archive (doi:10.1021/je501133u).

Test: xn = mol fraction of the nth substance listed
Conditions: 100 kPa, Liquid; for viscosity: Falling or rolling sphere viscometry; for mass density: Vibrating tube method

CCCCCCO [hexan-1-ol] + CCO
Conditions | mass density [kg/m3] | viscosity [mPa·s]
293.15 K, x2 = 0 | 818.9 | 5.35
293.15 K, x2 = 0.1001 | 816.7 | 4.67
293.15 K, x2 = 0.2003 | 815.1 | 4.15
293.15 K, x2 = 0.3004 | 813.3 | 3.66
293.15 K, x2 = 0.4006 | 811.6 | 3.19
293.15 K, x2 = 0.4998 | 808.7 | 2.76
293.15 K, x2 = 0.6009 | 806 | 2.41
293.15 K, x2 = 0.7001 | 802.9 | 2.03
293.15 K, x2 = 0.7995 | 799.2 | 1.71
293.15 K, x2 = 0.9001 | 794.9 | 1.43
298.15 K, x2 = 0 | 815.3 | 4.56
298.15 K, x2 = 0.1001 | 813.1 | 4.02
298.15 K, x2 = 0.2003 | 811.5 | 3.6
298.15 K, x2 = 0.3004 | 809.7 | 3.19
298.15 K, x2 = 0.4006 | 807.9 | 2.8
298.15 K, x2 = 0.4998 | 805 | 2.44
298.15 K, x2 = 0.6009 | 802.2 | 2.14
298.15 K, x2 = 0.7001 | 798.9 | 1.81
298.15 K, x2 = 0.7995 | 795.2 | 1.54
298.15 K, x2 = 0.9001 | 790.8 | 1.29
303.15 K, x2 = 0 | 811.7 | 3.9
303.15 K, x2 = 0.1001 | 809.5 | 3.48
303.15 K, x2 = 0.2003 | 807.8 | 3.14
303.15 K, x2 = 0.3004 | 806 | 2.8
303.15 K, x2 = 0.4006 | 804.1 | 2.47
303.15 K, x2 = 0.4998 | 801.2 | 2.17
303.15 K, x2 = 0.6009 | 798.4 | 1.91
303.15 K, x2 = 0.7001 | 795 | 1.63
303.15 K, x2 = 0.7995 | 791.2 | 1.39
303.15 K, x2 = 0.9001 | 786.6 | 1.17
308.15 K, x2 = 0 | 808.1 | 3.36
308.15 K, x2 = 0.1001 | 805.9 | 3.03
308.15 K, x2 = 0.2003 | 804.2 | 2.75
308.15 K, x2 = 0.3004 | 802.3 | 2.47
308.15 K, x2 = 0.4006 | 800.4 | 2.19
308.15 K, x2 = 0.4998 | 797.4 | 1.93
308.15 K, x2 = 0.6009 | 794.5 | 1.71
308.15 K, x2 = 0.7001 | 791.1 | 1.47
308.15 K, x2 = 0.7995 | 787.1 | 1.26
308.15 K, x2 = 0.9001 | 782.5 | 1.07
313.15 K, x2 = 0 | 804.5 | 2.91
313.15 K, x2 = 0.1001 | 802.2 | 2.65
313.15 K, x2 = 0.2003 | 800.5 | 2.42
313.15 K, x2 = 0.3004 | 798.5 | 2.18
313.15 K, x2 = 0.4006 | 796.6 | 1.94
313.15 K, x2 = 0.4998 | 793.6 | 1.73
313.15 K, x2 = 0.6009 | 790.6 | 1.54
313.15 K, x2 = 0.7001 | 787.1 | 1.32
313.15 K, x2 = 0.7995 | 783 | 1.14
313.15 K, x2 = 0.9001 | 778.2 | 0.97
318.15 K, x2 = 0 | 800.8 | 2.54
318.15 K, x2 = 0.1001 | 798.5 | 2.33
318.15 K, x2 = 0.2003 | 796.7 | 2.14
318.15 K, x2 = 0.3004 | 794.8 | 1.94
318.15 K, x2 = 0.4006 | 792.7 | 1.73
318.15 K, x2 = 0.4998 | 789.7 | 1.55
318.15 K, x2 = 0.6009 | 786.6 | 1.39
318.15 K, x2 = 0.7001 | 783 | 1.2
318.15 K, x2 = 0.7995 | 778.9 | 1.04
318.15 K, x2 = 0.9001 | 774 | 0.89
323.15 K, x2 = 0 | 797.1 | 2.23
323.15 K, x2 = 0.1001 | 794.8 | 2.06
323.15 K, x2 = 0.2003 | 793 | 1.9
323.15 K, x2 = 0.3004 | 790.9 | 1.73
323.15 K, x2 = 0.4006 | 788.9 | 1.55
323.15 K, x2 = 0.4998 | 785.7 | 1.39
323.15 K, x2 = 0.6009 | 782.6 | 1.25
323.15 K, x2 = 0.7001 | 779 | 1.09
323.15 K, x2 = 0.7995 | 774.7 | 0.94
323.15 K, x2 = 0.9001 | 769.7 | 0.81
328.15 K, x2 = 0 | 793.4 | 1.97
328.15 K, x2 = 0.1001 | 791 | 1.82
328.15 K, x2 = 0.2003 | 789.2 | 1.69
328.15 K, x2 = 0.3004 | 787.1 | 1.54
328.15 K, x2 = 0.4006 | 784.9 | 1.39
328.15 K, x2 = 0.4998 | 781.8 | 1.25
328.15 K, x2 = 0.6009 | 778.6 | 1.13
328.15 K, x2 = 0.7001 | 774.8 | 0.99
328.15 K, x2 = 0.7995 | 770.4 | 0.86
328.15 K, x2 = 0.9001 | 765.3 | 0.75
